Where two headings read alike, the source gives them in different places.

Test [1] deals with Mycobacterium tuberculosis. The following applies: against Mycobacterium tuberculosis; reported domestically; cited from earlier work.
Test [2] relates to M. tuberculosis H37Rv (ATCC 27294). As to conditions: reported abroad; cited from earlier work.
The subject of test [3] is sensitive Mycobacterium tuberculosis. As to conditions: reported domestically; cited from earlier work.
Test [4] concerns drug-resistant bacteria. As to conditions: reported domestically; cited from earlier work.
Test [5] deals with Mycobacterium tuberculosis standard strains H37Rv. As to conditions: quality control H37Rv.

In the case of `CC[C@H]1OC(=O)[C@H](C)[C@@H](O[C@H]2C[C@@](C)(OC)[C@@H](O)[C@H](C)O2)[C@H](C)[C@@H](O[C@@H]2O[C@H](C)C[C@H](N(C)C)[C@H]2O)[C@](C)(O)C[C@@H](C)CN(C)[C@H](C)[C@@H](O)[C@]1(C)O` [azithromycin], the MIC in test [1] was 128 micrograms/milliliter; in test [2], 95 micrograms/milliliter.

For `CC[C@H]1OC(=O)[C@H](C)[C@@H](O[C@H]2C[C@@](C)(OC)[C@@H](O)[C@H](C)O2)[C@H](C)[C@@H](O[C@@H]2O[C@H](C)C[C@H](N(C)C)[C@H]2O)[C@](C)(OC)C[C@@H](C)C(=O)[C@H](C)[C@@H](O)[C@]1(C)O` [clarithromycin], the MIC in test [3] is 0.25-2.0 micrograms/milliliter; in test [4] it was 2.0-32 micrograms/milliliter; in test [2], 6 micrograms/milliliter.

For the compound `CC[C@H]1OC(=O)[C@H](C)[C@@H](O[C@H]2C[C@@](C)(OC)[C@@H](O)[C@H](C)O2)[C@H](C)[C@@H](O[C@@H]2O[C@H](C)C[C@H](N(C)C)[C@H]2O)[C@](C)(O)C[C@@H](C)/C(=N\OCOCCOC)[C@H](C)[C@@H](O)[C@]1(C)O` [roxithromycin], the MIC entry in test [2] is recorded as “greater than or equal to 64 micrograms/milliliter”.

Turning to `CC[C@H]1OC(=O)C[C@@H](O)[C@H](C)[C@@H](O[C@@H]2O[C@H](C)[C@@H](O[C@H]3C[C@@](C)(O)[C@@H](O)[C@H](C)O3)[C@H](N(C)C)[C@H]2O)[C@@H](CC=O)C[C@@H](C)C(=O)/C=C/C(C)=C/[C@@H]1CO[C@@H]1O[C@H](C)[C@@H](O)[C@@H](OC)[C@H]1OC` [tylosin], the MIC in test [2] is listed as 58.6 micrograms/milliliter.

Take carrimycin: the “growth of bacterial colonies on drug-containing culture medium” value in test [5] (carrimycin 1 μg/ml) is 4+ (positive (4+) if the bacterial colonies closely grow on the slant face of the culture medium and account for ¾ or more of the area of the slant face); in test [5] (carrimycin 20 μg/ml) it was “−”.
